From patent publication US11964973B2 (priority 2019, dated 2024)
Where two headings read alike, the source gives them in different places.

Columns and labels:
[1] = system: naïve human CD8 T cells; assay: CellTiter-Glo CD8 T cell proliferation assay; type: cell-based; conditions: Homo sapiens, read-out: CD8 GLO Normalized EC50
Method: Assay 4: CellTiter-Glo CD8 T Cell Proliferation Assay
Frozen naïve human CD8 T cells were thawed in RPMI+10% FBS, incubated for 2 h in 37° C., and counted. The 384-well tissue culture plate was coated overnight at 4° C. with 20 μl anti-human CD3 at 0.1 μg/mL in plain RPMI, which was removed off the plate before 20 k/40 μL CD8 T cells with 0.5 μg/ml soluble anti-human CD28 were added to each well. The compounds were echoed to the cell plate immediately after the cells were plated. After 72 h incubation at 37° C. incubator, 10 μL CellTiter-glo reagent (Promega catalog number G7570) was added to each well. The plate was vigorously shaken for 5 mins, incubated at room temperature for another 15 mins and read on Envision for CD8 T cell proliferation. In analysis, 0.1 μg/mL anti-CD3 and 0.5 μg/mL anti-CD28 stimulated CD8 T cell signal was background.

[2] = target: DGKα (Homo sapiens (Human), UniProt P23743); assay: biochemical; type: biochemical; conditions: liposome (LIPGLO) assay; read-out: DGKα LIPGLO IC50
[3] = target: human DGKζ (Homo sapiens (Human), UniProt Q13574); assay: biochemical; type: biochemical; conditions: liposome (LIPGLO) assay; read-out: DGKζ LIPGLO IC50
[4] = system: OT-1 CD8+ T cells with SIINFEKL-loaded MC38 tumor cells; assay: Murine cytotoxic T lymphocyte assay (IFN-γ); type: cell-based, mouse; conditions: murine cytotoxic T lymphocyte, IFN-γ, read-out: msCTL INFg IC50
Source text: Assay 6: Murine Cytotoxic T Lymphocyte Assay
An antigen-specific cytolytic T-cell (CTL) assay was developed to evaluate functionally the ability of DGKα and DGKζ inhibitors to enhance effector T cell mediated tumor cell killing activity. CD8+ T-cells isolated from the OT-1 transgenic mouse recognize antigen presenting cells, MC38, that present the ovalbumin derived peptide […]. Recognition of the cognate antigen initiates the cytolytic activity of the OT-1 antigen-specific CD8+ T cells.
Functional CTL cells were generated as follows: OT-1 splenocytes from 8-12 week old mice were isolated and expanded in the presence of the […] peptide at 1 μg/mL and mIL2 at 10 U/mL. After three days, fresh media with […] was added. On day 5 of the expansion, the CD8+ T cells were isolated and ready for use. Activated CTL cells may be stored frozen for 6 months. Separately, one million MC38 tumor cells were pulsed with 1 μg/mL of […]-OVA peptide for 3 hours at 37° C. The cells were washed (3×) with fresh media to remove excess peptide. Finally, CTL cells that were pretreated with DGK inhibitors for 1 hour in a 96-well U bottom plate were combined with the antigen loaded MC38 tumor cells at a 1:10 ratio. The cells were then spun at 700 rpm for 5 min and placed in an incubator overnight at 37° C. After 24 hours, the supernatant was collected for analysis of IFN-γ cytokine levels by AlphaLisa purchased from Perkin Elmer.

Chain of human DGKζ (Q13574 whole entry, looked up): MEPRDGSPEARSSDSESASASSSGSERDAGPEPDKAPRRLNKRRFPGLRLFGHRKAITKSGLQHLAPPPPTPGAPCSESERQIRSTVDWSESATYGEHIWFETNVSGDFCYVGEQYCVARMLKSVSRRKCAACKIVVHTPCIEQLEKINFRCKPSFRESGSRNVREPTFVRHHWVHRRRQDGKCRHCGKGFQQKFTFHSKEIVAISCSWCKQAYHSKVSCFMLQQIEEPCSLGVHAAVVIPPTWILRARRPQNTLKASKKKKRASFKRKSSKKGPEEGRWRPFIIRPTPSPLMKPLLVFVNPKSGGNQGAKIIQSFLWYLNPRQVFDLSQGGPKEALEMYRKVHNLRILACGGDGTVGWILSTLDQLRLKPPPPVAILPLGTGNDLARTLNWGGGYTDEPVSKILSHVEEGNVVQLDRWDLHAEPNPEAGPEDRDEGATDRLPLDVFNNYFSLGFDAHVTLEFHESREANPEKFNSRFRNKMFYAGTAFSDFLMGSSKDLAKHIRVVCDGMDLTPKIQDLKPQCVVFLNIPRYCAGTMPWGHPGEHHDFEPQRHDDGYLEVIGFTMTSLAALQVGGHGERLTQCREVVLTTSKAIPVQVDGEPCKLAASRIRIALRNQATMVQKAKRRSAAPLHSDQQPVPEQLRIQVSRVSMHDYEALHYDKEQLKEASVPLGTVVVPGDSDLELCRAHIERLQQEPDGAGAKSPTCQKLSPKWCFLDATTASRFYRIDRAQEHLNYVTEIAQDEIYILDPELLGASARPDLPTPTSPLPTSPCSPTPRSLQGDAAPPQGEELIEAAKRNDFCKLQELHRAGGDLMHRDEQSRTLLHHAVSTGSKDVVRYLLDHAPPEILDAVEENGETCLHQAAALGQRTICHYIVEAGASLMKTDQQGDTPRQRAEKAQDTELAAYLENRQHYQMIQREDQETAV
Chain of DGKα (P23743 whole entry, looked up): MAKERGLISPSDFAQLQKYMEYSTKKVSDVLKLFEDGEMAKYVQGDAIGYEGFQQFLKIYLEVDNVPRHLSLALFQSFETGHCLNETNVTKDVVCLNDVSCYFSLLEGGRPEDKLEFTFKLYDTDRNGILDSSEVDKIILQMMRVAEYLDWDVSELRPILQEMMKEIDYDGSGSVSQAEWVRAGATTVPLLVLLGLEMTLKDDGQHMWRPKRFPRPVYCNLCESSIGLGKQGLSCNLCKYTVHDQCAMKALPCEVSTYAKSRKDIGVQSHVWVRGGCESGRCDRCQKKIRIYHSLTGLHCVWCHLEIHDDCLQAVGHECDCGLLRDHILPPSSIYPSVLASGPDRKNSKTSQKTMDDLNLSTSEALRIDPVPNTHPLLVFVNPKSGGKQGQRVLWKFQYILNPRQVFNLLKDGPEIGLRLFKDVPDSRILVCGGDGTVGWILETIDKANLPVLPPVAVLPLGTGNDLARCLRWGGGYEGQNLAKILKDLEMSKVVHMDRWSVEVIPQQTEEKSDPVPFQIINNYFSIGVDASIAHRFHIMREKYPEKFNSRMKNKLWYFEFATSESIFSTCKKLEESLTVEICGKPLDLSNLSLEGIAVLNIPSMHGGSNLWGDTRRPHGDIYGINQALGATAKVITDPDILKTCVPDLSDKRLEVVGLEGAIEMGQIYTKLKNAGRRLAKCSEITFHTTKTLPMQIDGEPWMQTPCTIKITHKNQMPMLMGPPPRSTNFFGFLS

SMILES	EC50 [1] [µM]	IC50 [2] [µM]	IC50 [3] [µM]	IC50 ([4]; Mus musculus, MC-38) [µM]	IC50 [4] [µM]
Cn1c(=O)c(C#N)c(N2CCC(Oc3ccccc3F)CC2)c2nc(Cl)ccc21 [Example 44, 6-chloro-4-(4-(2-fluorophenoxy)piperidin-1-yl)-1-methyl-2-oxo-1,2-dihydro-1,5-naphthyridine-3-carbonitrile]	1.5	1.7	59	–	–
COc1ccccc1OC1CCN(c2c(C#N)c(=O)n(C)c3ccc(Cl)nc23)CC1 [Example 35, 6-chloro-4-(4-(2-methoxyphenoxy)piperidin-1-yl)-1-methyl-2-oxo-1,2-dihydro-1,5-naphthyridine-3-carbonitrile]	0.21	0.29	12	–	–
Cc1cc(Br)ccc1OC1CCN(c2c(C#N)c(=O)n(C)c3ccc(Cl)nc23)CC1 [Example 26, 4-(4-(4-bromo-2-methylphenoxy)piperidin-1-yl)-6-chloro-1-methyl-2-oxo-1,2-dihydro-1,5-naphthyridine-3-carbonitrile]	2.7	–	–	10	–
Cn1c(=O)c(C#N)c(N2CCC(Oc3cccc(Cl)c3)CC2)c2nc(Cl)ccc21 [Example 27, 6-chloro-4-(4-(3-chlorophenoxy)piperidin-1-yl)-1-methyl-2-oxo-1,2-dihydro-1,5-naphthyridine-3-carbonitrile]	0.073	–	–	7.4	–
Cn1c(=O)c(C#N)c(N2CCC(Oc3cc(F)ccc3Cl)CC2)c2nc(Cl)ccc21 [Example 23, 6-chloro-4-(4-(2-chloro-5-fluorophenoxy)piperidin-1-yl)-1-methyl-2-oxo-1,2-dihydro-1,5-naphthyridine-3-carbonitrile]	–	66	58	10	–
Cn1c(=O)c(C#N)c(N2CCC(Oc3ccc(C#N)cc3)CC2)c2nc(Cl)ccc21 [Example 32, 6-chloro-4-(4-(4-cyanophenoxy)piperidin-1-yl)-1-methyl-2-oxo-1,2-dihydro-1,5-naphthyridine-3-carbonitrile]	–	–	–	10	–
Cc1cccc(OC2CCN(c3c(C#N)c(=O)n(C)c4ccc(Cl)nc34)CC2)c1 [Example 22, 6-chloro-1-methyl-2-oxo-4-(4-(m-tolyloxy)piperidin-1-yl)-1,2-dihydro-1,5-naphthyridine-3-carbonitrile]	0.62	0.15	5.7	–	–
Cc1cc(F)cc(OC2CCN(c3c(C#N)c(=O)n(C)c4ccc(Cl)nc34)CC2)c1 [Example 28]	–	1.6	5.4	–	10
Cn1c(=O)c(C#N)c(N2CCC(Oc3ccc(F)cc3)CC2)c2nc(Cl)ccc21 [Example 20, 6-chloro-4-(4-(4-fluorophenoxy)piperidin-1-yl)-1-methyl-2-oxo-1,2-dihydro-1,5-naphthyridine-3-carbonitrile]	0.87	0.43	16	–	–
Cn1c(=O)c(C#N)c(N2CCC(Oc3cccc(F)c3)CC2)c2nc(Cl)ccc21 [Example 45, 6-chloro-4-(4-(3-fluorophenoxy)piperidin-1-yl)-1-methyl-2-oxo-1,2-dihydro-1,5-naphthyridine-3-carbonitrile]	0.098	–	–	10	–
COc1ccc(C(F)(F)F)cc1OC1CCN(c2c([N+](=O)[O-])c(=O)n(C)c3ccc(F)cc23)CC1 [Example 8, 6-fluoro-4-(4-(2-methoxy-5-(trifluoromethyl)phenoxy)piperidin-1-yl)-1-methyl-3-nitroquinolin-2(1H)-one]	0.32	–	–	–	–
Cc1cccc(OC2CCN(c3c([N+](=O)[O-])c(=O)n(C)c4ccc(F)cc34)CC2)c1 [Example 4, 6-fluoro-1-methyl-3-nitro-4-(4-(m-tolyloxy)piperidin-1-yl)quinolin-2(1H)-one]	0.44	–	–	–	–
CC(C)c1ccc(OC2CCN(c3c(C#N)c(=O)n(C)c4ccc(Cl)nc34)CC2)cc1 [Example 37, 6-chloro-4-(4-(4-isopropylphenoxy)piperidin-1-yl)-1-methyl-2-oxo-1,2-dihydro-1,5-naphthyridine-3-carbonitrile]	1.1	0.49	240	–	–
